Data from patent US12409206B2, “Use of cyclosporine analogues for treating fibrosis” (Hepion Pharmaceuticals, Inc., priority 2020, dated 2025).

Legend:
[1] = system: Human LX-2 Hepatic Stellate Cells; test: Cell viability analysis, LX-2 culture; format: cell-based; details: end of treatment (24 hours)
Experimental: (§1) Human LX-2 Hepatic Stellate Cells (Millipore-Sigma, Cat. #SCC064) were cultured in 96-well plates. Treatments were applied in triplicate wells (applied 100 ul treatments per well) for 24 hours. Cells were near confluence at the start of treatments. […] Spent culture medium collected at the end of the treatments was assayed for procollagen and fibronectin by enzyme-linked immunosorbent assays (ELISA) (Procollagen ELISA antibody pair (ab216064) and fibronectin ELISA antibody pair (ab222262) from Abcam). Procollagen and fibronectin were not detected in medium not applied to cells. Procollagen and fibronectin levels in the medium are represented by means±SD (bars) from 3 replicate wells (open circles).

[2] = system: Human adult dermal fibroblasts; test: Procollagen and fibronectin ELISA of spent medium, dermal fibroblast culture; format: cell-based; details: medium from Day 1-2 of treatment, in the absence or presence of 10 ng/ml EGF or 0.4 ng/ml TGFβ
Experimental: as §1, with “adult dermal fibroblasts (Lonza Bioscience,” for “LX-2 Hepatic Stellate Cells (Millipore-Sigma,”, “#CC-2511)” for “#SCC064)”, “1 day, then re-applied for one additional day.” for “24 hours.”, “from Day 1-2” for “at the end”, “treatment” for “the treatments”, “circles). […].” for “circles).”

[3] = system: experimental models of NASH; details: cited from earlier work
[4] = system: Human cardiac fibroblasts; test: Cell viability analysis, cardiac fibroblast culture; format: cell-based; details: end of treatment (6 days)
Experimental: as §1, with “cardiac fibroblasts (Lonza Bioscience,” for “LX-2 Hepatic Stellate Cells (Millipore-Sigma,”, “#CC-2903)” for “#SCC064)”, “6 days.” for “24 hours.”, “of” for “of the”

[5] = system: Human cardiac fibroblasts; test: Procollagen and fibronectin ELISA of spent medium, cardiac fibroblast culture; format: cell-based; details: 6 days, both in the absence or presence of 0.4 ng/ml TGFβ
Experimental: as §1, with “cardiac fibroblasts (Lonza Bioscience,” for “LX-2 Hepatic Stellate Cells (Millipore-Sigma,”, “#CC-2903)” for “#SCC064)”, “6 days.” for “24 hours.”, “of” for “of the”

[6] = system: Human LX-2 Hepatic Stellate Cells; test: Procollagen and fibronectin ELISA of spent medium, LX-2 culture; format: cell-based; details: 24 hours, both in the absence or presence of 0.1 ng/ml TGFβ
Experimental: as §1

[7] = system: human precision cut liver slices (PCLS); test: PCLS gene expression by RT-PCR; format: cell-based
Experimental: PCLS were obtained from 5 human donors who underwent resection of liver cancer. Replicate slices were collected from healthy margins of the resections and cultured for 4 or 6 days depending on the experimental protocol. In the Nonstimulation Protocol slices were cultured for 6 days and treated for the entire period with DMSO vehicle or 5 μM CRV431. In the Stimulation Protocol slices were rested for 1 day and then administered the cytokines, TGFβ and PDGF-BB, for 3 days to stimulate inflammation and fibrosis. DMSO vehicle, CRV431 (1 and 5 μM), Alk5i (10 μM), obeticholic acid (5 μM), elafibranor (5 μM), resmetirom ([…]), and Aramchol (5 μM) were administered individually as drug treatments in the Stimulation Protocol concurrent with TGFβ+PDGF-BB. Culture medium treatments were replaced daily.
Four types of evaluations were conducted on the PCLS: (a) secretion of inflammation and fibrosis biomarkers into the culture medium, (b) histological staining and quantitation of Sirius red as a measure of tissue fibrosis, (c) gene expression of inflammation and fibrosis biomarkers by RT-PCR, and (d) RNA sequencing (RNA-Seq) of the complete transcriptome. Each of the four types of evaluation is described below: • (a) Biomarker secretion. Spent culture medium was collected daily from duplicate slices for each treatment. ELISAs were used to quantify secretion of monocyte chemoattractant protein (MCP-1), interleukin-6 (IL-6), tissue inhibitor of metalloproteinase-1 (TIMP1), hyaluronic acid, fibronectin, and collagen 1α1. For each donor the mean level of biomarker secretion in each treatment group was expressed as a percentage change relative to DMSO vehicle, the percentages averaged for all donors, and finally the mean daily percentage change calculated from all days of evaluation. […] Sirius red was quantified morphometrically in the histological sections as the percentage area with Sirius red staining in 10 sections from each treatment. In the Nonstimulation Protocol the quantity of Sirius red staining was expressed relative to the vehicle group. In the Stimulation Protocol the quantity of Sirius red staining was expressed relative to nonstimulated PCLS (0%) and TGFβ+PDGF-BB-stimulated+vehicle PCLS (100%). […] RNA was isolated from duplicate liver slices per treatment at the end of the experiments and evaluated by RT-PCR for 5 markers of inflammation and fibrosis: MCP-1, IL-6, TIMP1, αSMA, and collagen 1α1. β actin was used as a reference gene to calculate relative levels of each target gene RNA. […] RNA sequencing of the complete transcriptome (30 million reads per sample) was conducted on vehicle and 5 μM CRV431 treatment groups from 3 donors both from the Nonstimulation and Stimulation Protocols. […]

[8] = system: mouse unilateral ureteral obstruction (UUO) model of kidney fibrosis; test: Mouse unilateral ureteral obstruction (UUO) model of kidney fibrosis, Sirius red; format: in vivo, C57BL/6 mice; details: 50 mg/kg/day daily oral gavage for 13 days; vs vehicle; per-section and per-animal; one-way ANOVA with Tukey
Experimental: This example describes a study conducted in the mouse unilateral ureteral obstruction (UUO) model of kidney fibrosis. Seven-week-old female C57BL/6 mice were used in this study (n=8 mice per group). Sham group mice received no UUO. The remaining mice underwent complete surgical ligation of the left ureter. Vehicle and CRV431 at 50 mg/kg/day were administered by daily oral gavage for 13 days starting on the day of surgery. Mice were sacrificed on Day 14, and left kidneys were processed histologically and stained for fibrotic collagen with Sirius red. The percentage of each histological section with Sirius red staining was measured morphometrically in 5 sections from each kidney. Results are shown in FIG. 7A (showing Sirius red in individual tissue sections) and 7B (showing Sirius red in individual mice (5 tissue sections per mouse)).

## CC[C@@H]1NC(=O)[C@H]([C@H](O)[C@H](C)CCCCCCNC(C)=O)N(C)C(=O)[C@H](C(C)C)N(C)C(=O)[C@H](CC(C)C)N(C)C(=O)[C@H](CC(C)C)N(C)C(=O)[C@@H](C)NC(=O)[C@H](C)NC(=O)[C@H](CC(C)C)N(C)C(=O)[C@H](C(C)C)NC(=O)[C@H](CC(C)C)N(C)C(=O)[C@@H](C)N(C)C1=O [CRV431]
[1]
  cell viability: none of the CRV431 treatments affected cell viability
[2]
  abundance of fibronectin in the medium: dose-dependently decreased
  abundance of procollagen in the medium: dose-dependently decreased
[3]
  hepatocellular carcinoma tumor burden: can reduce
  liver fibrosis arising from non-alcoholic steatohepatitis: can reduce
[4]
  cell viability: none of the CRV431 treatments affected cell viability
[5]
  abundance of fibronectin in the medium: dose-dependently decreased
  abundance of procollagen in the medium: dose-dependently decreased
[6]
  abundance of fibronectin in the medium: dose-dependently decreased
  abundance of procollagen in the medium: dose-dependently decreased
[7]; CRV431 applied at 5 μM, markers MCP-1, IL-6, TIMP1, αSMA, collagen 1α1
  gene expression of all markers: decreased
[7]; qRT-PCR
  RNA levels of collagen1α1, αSMA, TIMP1, IL-6, and MCP-1: reductions in RNA levels
[8]
  Sirius red staining (fibrotic collagen) of left kidney: statistically significant decrease
